The values below come from publication PMC8206078, “Identification of pyrogallol as a warhead in design of covalent inhibitors for the SARS-CoV-2 3CL protease” (Nature Communications, 2021).

The conditions of data set [1]: for myricetin consumed: GSH, 600 min.
Data set [2] concerns SARS-CoV-2 replication in Vero E6 cells. Particulars: cited from earlier work.
Data set [3] shares this test system. As to the kind of experiment: microbe, parasite or virus in culture. Format: cell-based.
For data set [4] the following is noted: male, ICR, in vivo, po, 30 mg/kg.
A short description of a further data set: in vivo. To be noted: male, ICR, mouse; for AUC(0-inf): AUCINF_obs; for AUC(0-t): AUClast; for MRT inf: MRTINF_obs; for half-life: T1/2.
A short description of the next data set: PK study in mice. Particulars: mouse; for half-life: male, ICR, plasma; for T1/2: individual animals.
The target in a further data set is SARS-CoV-2 PLpro (Severe acute respiratory syndrome coronavirus 2, UniProt P0DTD1). Format: biochemical.
The target in data set [5] is chymotrypsin from bovine pancreas (Bos taurus, UniProt P00766). As to the kind of experiment: biochemical.
The nature of a further data set: in vitro. Particulars: African green monkey.
Setting [6] is: Severe acute respiratory syndrome coronavirus 2, Vero C1008, 24 h.
[7] abbreviates: iv, 10 mg/kg, Concentration in mouse plasma, Mean.
Where [8] appears, read: po, 30 mg/kg, Concentration in mouse plasma.
[9] abbreviates: po, 30 mg/kg, Concentration in mouse plasma, Mean.
Setting [10] is: Severe acute respiratory syndrome coronavirus 2, Vero C1008.

Where “and” joins values, the source holds several entries; their conditions need not be identical. Identical values can stand only once. Like-named read-outs stand apart in the source and are kept apart here.

A word on the EC50: it is the concentration at which the effect is half-maximal. For `O=c1cc(-c2ccccc2)oc2cc(O)c(O)c(O)c12` [baicalein, reference compound], in [1], the “adduct with GSH” value was “no adduct of GSH with baicalein was detected”. Also, the EC50 in data set [2] was 2.94 µM.
On to `COc1cc(O)c2c(=O)c(O)c(-c3cc(O)c(O)c(O)c3)oc2c1` [compound 3, 7-O-methyl myricetin], for which the EC50 in data set [3] (setting [6]) stood at 12.6 µM.
With `O=c1c(O)c(-c2cc(O)c(O)c(O)c2)oc2cc(OCC3CCCC3)cc(O)c12` [compound 6, 7-O-cyclopentylmethyl-myricetin], the “inhibition ratio (%)” value in data set [3] (100 µM) was 99.992% and 99.991% and 99.989% and 98.833% and 95.7336% and 99.607% and 99.987% and 99.985%. The EC50 in data set [3] (read-out: EC50) is 10.1 µM and 7.07 µM and 5.5 µM.
For orientation: bioavailability means the share of a dose that reaches the circulation, judged against a reference dose that is usually intravenous. The MRT is the average time that molecules of a dose stay in the body. What is called Tmax is the time at which the peak concentration occurs. As usually defined, the AUC(0-inf) is total exposure, with the tail of the curve extrapolated. For orientation: AUC(0-t) means the area under the concentration-time curve up to a stated or last time point. Usually half-life stands for the time in which the quantity being followed falls by half. Turning to `COc1cc(O)c2c(c1)O[C@H](c1cc(O)c(O)c(O)c1)[C@@H](O)C2=O` [compound 7, 7-O-methyl dihydromyricetin], the “inhibition ratio (%)” value in data set [3] (6.25 µM) was 21.811% and 15.067% and 12.154%; in data set [3] (25 µM), 58.083% and 57.749% and 55.409%; in data set [3] (50 µM) it was 75.679% and 73.921% and 74.205%; in data set [3] (200 µM), 99.619% and 99.626% and 99.565%. This molecule yielded a concentration giving a half-maximal response (EC50) in data set [3] (setting [6]) of 11.5 µM. In addition, the “Concentration in mouse plasma” value in data set [4] (8 h) is recorded as 11.5 ng/mL. For the same molecule, the bioavailability in “in vivo” was 18.1%; in “in vivo” (po, 30 mg/kg) it was 18.1%. Moreover, the MRT in the data set “in vivo” (iv, 10 mg/kg) came out at 41.4 ± 51.6 min; in the data set “in vivo” (po, 30 mg/kg) it was 113 min. Moreover, in “in vivo” (setting [7]), the concentration at 0.05 h is 3190 ng/mL. The results for the concentration at 2 h in “in vivo” (setting [7]) and in the data set “in vivo” (setting [9]) were 62.4 ng/mL and 61.2 ng/mL, respectively. Moreover, the concentration at 4 h turned out to be 23.6 ng/mL in the data set “in vivo” (setting [7]) and 32.9 ng/mL in the data set “in vivo” (setting [9]). The values for the concentration at 8 h in “in vivo” (setting [7]), in “in vivo” (setting [8]) and in “in vivo” (setting [9]) were 0 ng/mL, 10.1 ng/mL and 4.32 ng/mL, respectively. The concentration at 24 h in the data set “in vivo” (setting [7]) and in the data set “in vivo” (setting [9]) was 0 ng/mL each time. In addition, the Tmax in “in vivo” (po, 30 mg/kg) was 15 min. In the data set “in vivo” (po, 30 mg/kg), this molecule came in with an AUC(0-inf) of 588 ng·h/mL. Further, the AUC(0-t) in “in vivo” (po, 30 mg/kg) was found to be 510 ng·h/mL. The concentration at 0.5 h was 200 ng/mL in “in vivo” (setting [8]) and 279 ng/mL in “in vivo” (setting [9]). Further, the concentration at 1 h in the data set “in vivo” (setting [8]) stood at 112 ng/mL; in the data set “in vivo” (setting [9]) it was 118 ng/mL. Besides, the half-life in the data set “PK study in mice” (iv, 10 mg/kg, T1/2, mice, i.v. 10 mg/kg) is 34.8 ± 37.8 min; in “PK study in mice” (iv, 10 mg/kg, T1/2, mouse, i.v. 10 mg/kg, mean), 34.8 min; in “PK study in mice” (po, 30 mg/kg, T1/2, mice, p.o. 30 mg/kg) it was 104 min; in “PK study in mice” (po, 30 mg/kg, T1/2, mouse, p.o. 30 mg/kg, mean) it was 104 min. For the same molecule, the T1/2 in “PK study in mice” (i.v. 10 mg/kg, 10 mg/kg) was 7.2 min and 97.2 min and 5.4 min and 40.2 min and 22.8 min; in the data set “PK study in mice” (p.o. 30 mg/kg, 30 mg/kg) it was 111 min and 187 min and 86.4 min and 78.6 min and 58.8 min.
Take `O=c1c(O)c(-c2cc(O)c(O)c(O)c2)oc2cc(OP(=O)(Oc3ccccc3)Oc3ccccc3)cc(O)c12` [compound 9]: the EC50 in [3] (setting [6]) is 3.15 µM.
In the case of `O=C1c2c(O)cc(OP(=O)(Oc3ccccc3)Oc3ccccc3)cc2O[C@H](c2cc(O)c(O)c(O)c2)[C@H]1O` [compound 10], the EC50 in data set [3] is 6.99 µM and 8.24 µM and 10.2 µM and 10.4 µM and 8.4 µM; in [3] (setting [10]), 9.94 µM; in data set [3] (setting [6]), 9.03 µM.
As for `O=C1c2c(O)cc(O)cc2O[C@H](c2cc(O)c(O)c(O)c2)[C@H]1O` [dihydromyricetin], the concentration giving a half-maximal response (EC50) is 13.9 µM and 9.94 µM and 13.7 µM and 14 µM and 17.6 µM in data set [3]; 12.3 µM in data set [3] (setting [10]); 13.6 µM in data set [3] (setting [6]).
What is called IC50 is the concentration needed to halve the response being measured. By Cmax is commonly meant the maximum level reached in the sampled fluid or tissue. As usually defined, the MRT inf is a mean duration of stay, worked out from the concentration-time curve. As to `O=c1c(O)c(-c2cc(O)c(O)c(O)c2)oc2cc(O)cc(O)c12` [myricetin, 3,5,7,3′,4′,5′-hexahydroxyflavone], the “times weaker than against 3CLpro” value (on SARS-CoV-2 PLpro; in [5]) was “more than 100” in each case. Also, in [5], the concentration for half-maximal inhibition (IC50) is 132 ± 10.6 µM. For the same molecule, a half-maximal response in data set [3] (setting [6]) (EC50) required 8 µM. Moreover, the myricetin consumed in [1] (absence of oxygen) came out at 11%; in data set [1] (presence of oxygen), 65%. For the same molecule, the “Ln(%parent)” value was 4.593 and 4.572 and 4.649 in data set [1] (myricetin reacting with glutathione, 0h); 4.472 and 4.529 and 4.531 in data set [1] (myricetin reacting with glutathione, 2h); 4.27 and 4.376 and 4.3091 in [1] (myricetin reacting with glutathione, 4h); 4.107 and 4.203 and 4.174 in [1] (myricetin reacting with glutathione, 6h); 3.902 and 4.0179 and 3.984 in [1] (myricetin reacting with glutathione, 8h); 3.729 and 3.812 and 3.826 in data set [1] (myricetin reacting with glutathione, 10h). In addition, the kpseudo1st in data set [1] (myricetin reacting with glutathione, single independent experiment) was 0.001475 and 0.001311 and 0.001403. This molecule showed a T1/2 in data set [4] (mouse) of 26.4 min. Moreover, the mean residence time MRT in the data set “in vivo” (ip, 10 mg/kg) stood at 5.4 min; in “in vivo” (po, 30 mg/kg), 50.4 min. Further, the area under the curve AUC(0-inf) in the data set “in vivo” (ip, 10 mg/kg) is 1040 ng·h/mL; in the data set “in vivo” (po, 30 mg/kg), 8.51 ng·h/mL. In addition, the AUC(0-t) was determined as 1090 ± 103 ng·h/mL in the data set “in vivo” (ip, 10 mg/kg) and 6.07 ng·h/mL in “in vivo” (po, 30 mg/kg). Further, the Cmax came to 1800 ± 346 ng/mL in the data set “in vivo” (ip, 10 mg/kg) and 8.59 ng/mL in the data set “in vivo” (po, 30 mg/kg). Moreover, the MRT inf in “in vivo” (ip, 10 mg/kg) stood at 66.6 min; in “in vivo” (po, 30 mg/kg), 50.4 min. Moreover, the half-life in the data set “in vivo” (ip, 10 mg/kg) was 126 ± 1.2 min; in the data set “in vivo” (po, 30 mg/kg), 26.4 min. For the same molecule, the time of peak concentration (Tmax) in the data set “in vivo” (po, 30 mg/kg, Tmax) was found to be 30 min. Moreover, in the data set “in vitro”, the CC50 was > 200 µM.
For `CCC(CC)COC(=O)[C@H](C)N[P@](=O)(OC[C@H]1O[C@@](C#N)(c2ccc3c(N)ncnn23)[C@H](O)[C@@H]1O)Oc1ccccc1` [remdesivir, reference compound], in data set [3] (setting [6]), the EC50 was determined as 3.68 µM.
Regarding `CCC(CC)COC(=O)[C@H](C)N[P@](=O)(OC[C@H]1O[C@@](C#N)(c2ccc3c(N)ncnn23)[C@H](O)[C@@H]1O)Oc1ccccc1` [remisivir], in data set [3] (read-out: EC50 (µM) Mean), the EC50 amounted to 3.68 µM. Further, the “inhibition ratio (%)” value in the data set on Vero E6 cells (concentration 2.34375 (unit not given)) was 99.5877% and 102.33% and 102.223%; in the data set with Vero E6 cells (concentration 4.6875 (unit not given)), 100.126% and 103.513% and 104.159%; in the data set on Vero E6 cells (concentration 9.375 (unit not given)) it was 103.244% and 98.6198% and 99.2113%; with Vero E6 cells (concentration 18.75 (unit not given)), 101.362% and 100.126% and 95.6085%; in the data set with Vero E6 cells (concentration 37.5 (unit not given)), 102.707% and 103.352% and 97.8132%; in the data set on Vero E6 cells (concentration 75 (unit not given)) it was 97.383% and 95.0708% and 98.7274%. For the same molecule, the “inhibition ratio (%)” value was 83.7247% and 84.1011% and 85.4454% with Vero E6 cells (concentration 150 (unit not given)); 42.4807% and 43.2336% and 43.126% with Vero E6 cells (concentration 300 (unit not given)).
Regarding N-phenylacrylamide [reference compound], in data set [1], the kpseudo1st was 0.02117 and 0.01952 and 0.0207.
